# Assays:
# [1] = Toxicity in white mouse; format: organism-based; conditions: in vivo
# [2] = Cytotoxicity against mouse EAC assessed as growth inhibition; format: functional, Ehrlich
# X5563 = test: Cytotoxicity against mouse X5563 cells assessed as growth inhibition; format: functional
# [3] = Cytotoxicity against mouse Gardner lymphosarcoma cells assessed as growth inhibition; format: functional
# [4] = Cytotoxicity against mouse mammary carcinoma 755 cells assessed as growth inhibition; format: functional
# [5] = Cytotoxicity against rat Walker 256 cells assessed as growth inhibition; format: functional
Compound,MTD [1] [mg/kg],growth inhibition (GI) [2] [%],growth inhibition (GI) (X5563) [%],growth inhibition (GI) [3] [%],growth inhibition (GI) [4] [%],growth inhibition (GI) [5] [%]
COc1nnc2n(C)ncnc1-2 [PSEUDOIODININE],20,64,–,–,–,–
NC(=O)c1ncn([C@@H]2O[C@H](CO)[C@@H](O)[C@H]2O)n1 [RIBAVIRIN],–,–,>50,>50,>50,>50
COc1nnc2nn(C)cnc1-2,0.2,40,–,–,–,–
COc1[nH]nc2nncnc12,50,83,–,–,–,–

# Source: ChEMBL document CHEMBL2434869, “Pyrazole containing natural products: synthetic preview and biological significance” (Eur J Med Chem, 2013)
